Data as given in article PMC6727465, “Discovery of 2-phenoxyacetamides as inhibitors of the Wnt-depalmitoleating enzyme NOTUM from an X-ray fragment screen” (MedChemComm, 2019).
Values after ≈ are worked out from the molar mass of the structure shown. Read-outs that look alike come from different tables or passages of the source.

Experiments:
[1] = Metabolic stability in mouse liver microsomes; type: in vitro ADME; conditions: NADPH independent metabolism; for half-life: mouse
Excerpt: (§1) Selected compounds were screened for aqueous solubility, transit performance in MDCK-mdr1 cell
(§2) lines for permeability, and metabolic stability in human and mouse liver microsomes as a measure of
(§3) ADME studies reported in this work were independently performed by GVK Biosciences (Hyderabad,
(§4) India) and/or Cyprotex (Macclesfield, UK).
(§5) Cyptotex, UK. See: https://www.cyprotex.com/admepk
(§6) GVK Biosciences, India. See: https://www.gvkbio.com/discovery-services/biology-services/dmpk-
(§7) The MDCK-mdr1 cell line used in these experiments was supplied to GVK Biosciences from SOLVO

[2] = test system: Wnt/β-catenin signaling pathway TCF/LEF reporter (luciferase) HEK293 cell line with exogenous Wnt3a and NOTUM; assay: cells; type: cell-based; conditions: for EC50: Wnt3a 100 ng mL^–1, NOTUM 500 ng mL^–1, n = 4, read-out: TCF/LEF reporter EC50, activation of Wnt signaling via inhibition of NOTUM
[3] = test system: MDCK-mdr1 cell line; assay: MDCK-mdr1 cell permeability; type: in vitro ADME; conditions: MDCK-mdr1
Excerpt: as §1, §2, §3, §4, §5, §6, §7

[4] = MDCK-mdr1 cell permeability; type: in vitro ADME; conditions: dog
Excerpt: as §1, §2, §3, §4, §5, §6, §7

[5] = Aqueous thermodynamic solubility; type: physicochemical; conditions: aqueous medium (not further specified), thermodynamic from solid
Excerpt: as §1, §2, §3, §4, §5, §6, §7

[6] = Hydrolytic stability in buffer systems; type: physicochemical; conditions: three buffer systems (pH 4, 7.4, 10), time points up to 18 h, UPLC-MS
[7] = Metabolic stability in human liver microsomes; type: in vitro ADME; conditions: NADPH independent metabolism
Excerpt: as §1, §2, §3, §4, §5, §6, §7

Question: Which half-life ([1]; liver microsomes) does the source give for Cc1ccccc1OCC(=O)Nc1cccnc1 [Compound 3, 2-(2-methylphenoxy)-N-(pyridine-3-yl)acetamide] here?
Answer: 1.1 min

Question: With Cc1ccccc1OCC(=O)Nc1cnccn1 [Compound 22] as the compound, how does the “MLM (t1/2 min)” value [1] read?
Answer: Not detected ^a

Question: Which “Response in TCF/LEF reporter assay” value [2] does the source give for Cc1ccccc1OCC(=O)Nc1ccc2nccnc2c1 [Compound 27] here?
Answer: supramaximal response

Question: Which results are given for Cc1ccccc1OCC(=O)Nc1ccc2cnn(C)c2c1 [Compound 34]?
Answer: P-gp mediated efflux [3]: no evidence of P-gp mediated efflux; Papp A→B ([4]; MDCK-mdr1, AB): 5.1 ×10⁻⁶ cm/s; Papp B→A ([4]; MDCK-mdr1, BA): 6.6 ×10⁻⁶ cm/s; solubility thermodynamic [5]: 2 µg/mL (≈ 6.77 µM); Hydrolytic stability [6]: only parent was detected; MLM (t1/2 min) [1]: Not detected ^a; half-life [7]: 11.6 min

Question: Which “Response in TCF/LEF reporter assay” value ([2]; dual activity: NOTUM inhibition and stabilizers of luciferase enzyme) does the source give for Cc1ccccc1OCC(=O)Nc1ccc2cn(C)nc2c1 [Compound 35] here?
Answer: supramaximal response

Question: With CCn1cc2ccc(NC(=O)COc3ccccc3C)cc2n1 [Compound 37] as the compound, how does the EC50 ([2]; Homo sapiens, HEK293) read?
Answer: 386 ± 199 nM

Question: Which EC50 ([2]; Homo sapiens, HEK293) does the source give for Cc1ccccc1OCC(=O)Nc1ccc2cn(C(C)C)nc2c1 [Compound 38] here?
Answer: ~934 nM

Question: What about the inhibition at 3 µM ([2]; Homo sapiens, HEK293, at 3 μM) of the same compound?
Answer: 60%

Question: And the half-life ([1]; liver microsomes)?
Answer: 5.7 min

Question: What about the half-life [7] of the same compound?
Answer: 5.1 min

Question: With Cc1ccccc1OCC(=O)Nc1ccc2nn[nH]c2c1 [Compound 39] as the compound, how does the half-life ([1]; liver microsomes) read?
Answer: 1.8 min

Question: For Cc1ccccc1OCC(=O)Nc1ccc2cnccc2c1 [Compound 45], which half-life ([1]; liver microsomes) is on record?
Answer: 11 min

Question: And the half-life [7]?
Answer: 12.1 min

Question: Which half-life ([1]; liver microsomes) does the source give for O=C(COc1ccccc1Cl)Nc1ccc2cnccc2c1 [Compound 50] here?
Answer: 3.3 min

Question: For Cc1ccccc1N(C)CC(=O)Nc1ccc2cnn(C)c2c1 [Compound 53], which half-life ([1]; mouse liver microsomes) is on record?
Answer: 5.2 min

Question: Which “MLM (t1/2 min)” value [1] does the source give for Cc1ccccc1OCC(=O)N1CCc2ccccc2C1 [Compound 54] here?
Answer: Not detected ^a
